{
  "source": "patent US20180368393A1",
  "about": "“PRE- AND POST-STORAGE STRESS RESPONSE CONDITIONING” (CPSI HOLDINGS LLC, priority 2017, published 2018)",
  "key": {"human endothelial cells": {"tested_on": "human endothelial cells", "test": "Human endothelial cell monolayer survival and repopulation following cryopreservation (Calcein-AM assay)", "type": "cell-based", "details": "for post-thaw viability: P/P conditioning, U10 and U5G10 CP solutions vs matched non-treated samples; for day 1 survival increase over non-treated samples: U10G10", "procedure": "A series of cryopreservation experiments was conducted on human endothelial and smooth muscle cell suspensions and monolayers to assess the performance of four (4) commercially available cryopreservation solutions: DP6, VS55, VS83, and M22, as well as nine (9) additional solutions: […] Eurocollins (EC) solution was included as a negative control, i.e., no cryoprotective agent (CPA) control, while media+10% DMSO ([…]) is a typical solution (10% DMSO) used in standard controlled rate cryopreservation protocols known to the skilled individual. Unisol is representative of the class of intracellular-like or intracellular-type solutions/media, whereas EC solution and culture media are representative of the class of extracellular-like or extracellular-type solutions/media. Other studies presented herein provide additional examples of intracellular- and extracellular-like solutions; other intracellular- and extracellular-like solutions are similarly useful and are known to those of skill in the art. FIG. 1 illustrates the results of an assessment of human endothelial cell survival following preservation. Monolayers of endothelial cells were frozen or vitrified and thawed in the indicated solutions (control, Uni, […], DP6, VS55, VS83, and […]). Following thawing, samples were diluted in culture media, placed into culture and assessed for viability at 1 day (24 hours) post-thaw and following seven (7) days of recovery using the Calcein-AM assay. […] The Uni and U10 conditions provided outcomes exceeding that of the VS55, VS83 and […] conditions. Therefore, subsequent studies (see, e.g., FIG. 2) focused on Unisol-based solutions with various CPAs and concentrations, in addition to the DP6 commercial cryopreservation solution. […] Monolayers of endothelial cells were frozen or vitrified and thawed in the indicated solutions. […] For pre-freeze (PF), post-warming (PW) and pre/post (P/P) conditioning studies, molecular modulation agents targeting inhibition of apoptosis (Caspase inhibitor IV, 8, 9 and a combination of Caspases 8 and 9), reduction of free-radical damage (resveratrol and NAC), and activation of the unfolded protein response (salubrinal) were employed as supplements in the media 1 hour prior to freezing (pre-freeze condition) or for 1 day following thawing and CPA removal from frozen samples (post-warming condition). Based on outcomes in the studies in Example 1, PF, PW and P/P conditioning were examined in Examples 2-3 using a series of Unisol-based solutions (Uni, U5, U10, U20, UG10, U5G10 and U10G10). […] Patent Application Publication No. US 2016/0097583 A1 (Ser. No. 14/876,087), which is incorporated by reference in its entirety as though fully set forth herein. The freeze and thaw process was slightly modified relative to the disclosure of U.S. Patent Application Publication No. US 2016/0097583 A1 by the addition of a 0.090 inch aluminum plate inserted into the bottom of the 96 well plate to aid in increasing cooling and heating uniformity throughout the plate, thereby reducing the well-to-well variability within the samples. The device was used to thaw the samples, which were frozen in situ in monolayers in standard 96-well tissue culture plates. […] A mitochondrial-mediated apoptotic inhibitor (Caspase 9) and a membrane-mediated apoptotic inhibitor (Caspase 8) were investigated to evaluate the involvement and impact of modulation of various apoptotic induction pathways. Additionally, a pan-Caspase inhibitor (Cas IV) was also investigated to assess the impact of global pathway modulation. As with the viability studies, cell survival and repopulation were assessed using Calcein-AM assays and analyzed using fluorescent microscopy (Zeiss). Survival was determined at 24 hours post-thaw to allow for the manifestation of any delayed onset cell death pathways to be executed. Further, cell recovery was included to evaluate the long term potency and repopulation potential of the various samples. […]"}, "[1]": {"tested_on": "human smooth muscle cells", "test": "Human smooth muscle cell monolayer survival and repopulation following cryopreservation (Calcein-AM assay)", "type": "cell-based", "procedure": "(§1) The device was used to thaw the samples, which were frozen in situ in monolayers in standard 96-well tissue culture plates. Samples were thawed from less than −170° C. to about 4° C. in the 96-well plate format in about 5 mins in a dry clean (“sterile”) environment.\nThe study described in example 3.1 focuses on the collection of cell survival data and the impact of post-thaw conditioning on human smooth muscle cells (SMCs). Specific activities included application of the high throughput monolayer sample cryopreservation protocol and collection of data (survival and cell death) from samples frozen using 6 unique cryopreservation solutions (U5, U10, U20, U5G10, U10G10, DP6) and 6 unique modulators (resveratrol, salubrinal, caspase inhibitors (IV, 8, 9) and NAC). Survival was determined at 24 hours post-thaw to allow for the manifestation of any delayed onset cell death pathways to be executed. Further, cell recovery was included to evaluate the long term potency and repopulation potential of the various samples.\nA series of experiments was conducted to evaluate the performance of several solutions (U5, U10, U20, U5G10, U10G10 and DP6) as well as the impact of pre-freeze (PF) and post-warming (PW) conditioning with the apoptotic inhibitors Caspase 8, Caspase 9 and Caspase IV inhibitors. Cell samples were processed using the monolayer CP protocol and analyzed following 24 hours to 7 days post thaw for survival and recovery. These experiments were conducted to evaluate the impact of molecular modulators (inhibitors) during pre-freeze or post-thaw recovery on cell survival when added to the media 1 hour prior to or 24 hour following cryopreservation. […] To this end, samples were probed with Calcein-AM, incubated for 30 mins in the dark and then imaged using a Zeiss Axiovert 200 fluorescence microscope and Axiovision software. Images were taken at 24 hours to 7 days post-thaw to allow for assessment of solution and post-thaw conditioning agent performance.\nAs in previous experiments, the 24 hour time point was used for initial survival assessment, as this time point allows for the manifestation of molecular based cell stress-induced death. This provides a more accurate measure of survival than 0 or 1 hour post-thaw assessment, as is typically used. The 3 day time point was selected to assess re-population potential of any surviving cells as an indicator of long term potency.\nFor smooth muscle cell pre-freeze (PF) conditioning studies, 1 hour prior to CP addition, culture media was decanted and 100 μL of fresh media supplemented with caspase 8, 9, or IV was added to each respective well. Samples were then incubated at 37° C. for 1 hour, followed by media removal and addition of 100 μL of CP solution to samples followed by cryopreservation as described above. Following preservation, samples were thawed, diluted, and placed into culture. Following 24 hours recovery, cell viability was assessed.\nFor smooth muscle cell post-warming (PW) conditioning studies, following thawing and cryopreservation, CP solution was removed or diluted with culture media supplemented with caspase 8, 9, or IV. FIG. 18 illustrates the impact of apoptotic inhibition post-freeze conditioning on human smooth muscle cell survival 1 day following cryopreservation with and without reduced CPA.\nFor P/P conditioning studies, 1 hour prior to CP addition, culture media was decanted and 100 μL of fresh media supplement with caspase 8, 9, or IV was added to each respective well."}, "[2]": {"tested_on": "endothelial and smooth muscle cells", "test": "Summary of Examples 2-3: post-thaw survival of endothelial and smooth muscle cells (Calcein-AM assay)", "type": "cell-based, human", "procedure": "For pre-freeze (PF), post-warming (PW) and pre/post (P/P) conditioning studies, molecular modulation agents targeting inhibition of apoptosis (Caspase inhibitor IV, 8, 9 and a combination of Caspases 8 and 9), reduction of free-radical damage (resveratrol and NAC), and activation of the unfolded protein response (salubrinal) were employed as supplements in the media 1 hour prior to freezing (pre-freeze condition) or for 1 day following thawing and CPA removal from frozen samples (post-warming condition).\nas §1\nThe P/P regime was followed by PW using Caspase 8 inhibition or NAC inhibition."}, "[3]": {"tested_on": "human hematopoietic stem cells (hHSC)", "test": "Human hematopoietic stem cell survival following cryopreservation (Calcein-AM assay)", "type": "cell-based", "details": "cryopreserved in DMSO 10%", "procedure": "The studies described in example 4 focus on the collection of cell survival data and the impact of post-thaw conditioning on human stem cells (hHSCs). Specific activities included standard cryopreservation protocol and collection of data (survival and cell death) from samples frozen using 6 unique cryopreservation solutions (Media, M5, M10, Unisol, U5 and U10) and 4 unique modulators (resveratrol (OSI), salubrinal (UPRI), caspase inhibitor (AI) and NAC). Survival was determined at 24 hours post-thaw to allow for the manifestation of any delayed onset cell death pathways to be executed. […]\nA series of experiments was conducted to evaluate the performance of several solutions (media, M5, M10, Unisol, U5, and U10) as well as the impact of post-warming (PW) conditioning with the molecular modulators. Cell samples were processed using a standard controlled rate cooling suspension protocol and analyzed following 24 hours to 7 days post thaw for survival and recovery. […] To this end, samples were probed with Calcein-AM, incubated for 30 mins in the dark and then imaged using a Zeiss Axiovert 200 fluorescence microscope and Axiovision software. […]\nFor hHSC post-warming (PW) conditioning studies, following thawing each sample was diluted with culture media supplemented with the respective molecular modulator added to the dilution media. Samples were incubated in culture for 24 hours, then assessed. […]"}, "[4]": {"details": "PF and PW caspase inhibitor conditioning, U10G10 solution"}, "[5]": {"details": "PF conditioning, U10, U20, U5G10 and U10G10"}, "[6]": {"details": "P/P conditioning, vs non-conditioned samples"}},
  "note": "“Also recorded” adds a separate entry of the source. Where a SMILES comes first, the peptide text is derived from it. The star is where a group is joined. Cbz = O=C(OCc1ccccc1)*; CH2F = FC*",
  "data": [
    {"smiles": "CC[C@H](C)[C@H](NC(=O)OCc1ccccc1)C(=O)N[C@@H](CCC(=O)OC)C(=O)N[C@H](C(=O)N[C@@H](CC(=O)OC)C(=O)CF)[C@@H](C)O", "note": "[Caspase 8 inhibitor] (Cbz-IE(OMe)TD(OMe)-CH2F)", "values": [
      {"measurement": "day 1 cell survival / post-thaw viability", "setting": "human endothelial cells; P/P caspase inhibitor conditioning, Unisol+CPA samples vs non-treated matched samples", "value": "improvement in cell survival"},
      {"measurement": "cell repopulation / day 3 recovery", "setting": "human endothelial cells; P/P caspase inhibitor conditioning, Unisol+CPA solutions and DP6", "value": "most beneficial; also recorded: marked improvement in all solutions in day 3 recovery"},
      {"measurement": "cell recovery and repopulation (overall)", "setting": "human endothelial cells; [4]", "value": "improvement in cell recovery and repopulation"},
      {"measurement": "recovery at 3 days post-thaw", "setting": "human endothelial cells; PF caspase inhibitor conditioning, Unisol+CPA conditions", "value": "improvement in recovery"},
      {"measurement": "day 3 recovery", "setting": "human endothelial cells; PW caspase inhibitor conditioning, U10, U20 and U5G10 vs non-treated", "value": "marked improvement in day 3 recovery"},
      {"measurement": "cell recovery 3 days post-thaw", "setting": "human endothelial cells; PW caspase inhibitor conditioning, Unisol+CPA conditions", "value": "improvement in cell recovery"},
      {"measurement": "day 1 cell survival", "setting": "human endothelial cells; post-warming (PW) caspase inhibitor conditioning 24 hours, Unisol+CPA solutions, vs non-treated matched samples", "value": "overall increase in cell survival"},
      {"measurement": "day 1 cell survival", "setting": "human endothelial cells; post-warming (PW) caspase inhibitor conditioning 24 hours, Unisol+CPA solutions, vs non-treated matched samples, listed as Caspase 8", "value": "slight improvement in cell survival"},
      {"measurement": "cell survival", "setting": "human endothelial cells; pre/post (P/P) caspase inhibitor conditioning, U10G10 solution, day 1", "value": "~90", "unit": "%"},
      {"measurement": "increase over non-treated U10G10 samples", "setting": "[1]; P/P caspase inhibitor conditioning, U10G10, day 1 survival", "value": "~50", "unit": "%"},
      {"measurement": "day 1 survival, % of controls", "setting": "[1]; P/P caspase inhibitor conditioning, U10G10, listed as Caspase 8", "value": "~60", "unit": "%"},
      {"measurement": "day 1 survival, % of controls", "setting": "[1]; P/P caspase inhibitor conditioning, U10G10, listed as caspase 8", "value": "about 70%"},
      {"measurement": "day 1 survival, % of controls", "setting": "[1]; P/P caspase inhibitor conditioning, U10G10, listed as caspase 8 inhibitor", "value": "~70", "unit": "%"},
      {"measurement": "cell repopulation / day 3 recovery", "setting": "[1]; P/P caspase inhibitor conditioning, Unisol+CPA conditions and DP6", "value": "marked improvement in day 3 recovery"},
      {"measurement": "smooth muscle cell recovery and repopulation (overall)", "setting": "[1]; [4]", "value": "improvement in smooth muscle cell recovery and repopulation"},
      {"measurement": "recovery at 3 days post-thaw", "setting": "[1]; PW caspase inhibitor conditioning", "value": "complete recovery of the samples to pre-freeze controls"},
      {"measurement": "day 1 cell survival", "setting": "[1]; PW caspase inhibitor conditioning, Unisol+CPA solutions", "value": "slight increase in cell survival"},
      {"measurement": "day 1 post-thaw cell survival and cell recovery", "setting": "[2]; PF, PW and P/P conditioning, Unisol based solutions", "value": "improved"},
      {"measurement": "increase in cell survival over non-treated samples", "setting": "[2]; PW conditioning", "value": "~50", "unit": "%"},
      {"measurement": "increase in survival over non-treated samples", "setting": "[2]; U10G10, P/P conditioning, day 1", "value": "> 2", "unit": "fold"}
    ]},
    {"smiles": "C[S+](C)[O-]", "note": "[DMSO, dimethyl sulfoxide]", "values": [
      {"measurement": "cell loss rates", "setting": "[3]", "value": "greater than 50%"}
    ]},
    {"smiles": "Oc1ccc(C=Cc2cc(O)cc(O)c2)cc1", "note": "[resveratrol]", "values": [
      {"measurement": "post-thaw viability", "setting": "human endothelial cells", "value": "increase in post-thaw viability"},
      {"measurement": "day 1 survival increase over non-treated samples", "setting": "human endothelial cells; PF conditioning 1 hour", "value": "~2", "unit": "fold"},
      {"measurement": "day 1 cell survival", "setting": "human endothelial cells; [5]", "value": "Improvement"},
      {"measurement": "day 1 survival increase over non-treated samples", "setting": "human endothelial cells; PW conditioning 24 hours", "value": "~2", "unit": "fold"},
      {"measurement": "day 1 cell survival", "setting": "[1]; [6]", "value": "slight to no improvement in cell survival"}
    ]},
    {"smiles": "O=C(/C=C/c1ccccc1)NC(NC(=S)Nc1cccc2cccnc12)C(Cl)(Cl)Cl", "note": "(stereo not drawn) [salubrinal]", "values": [
      {"measurement": "post-thaw viability", "setting": "human endothelial cells", "value": "increase in post-thaw viability"},
      {"measurement": "day 1 cell survival", "setting": "human endothelial cells; [5]", "value": "Improvement"},
      {"measurement": "day 1 cell survival", "setting": "[1]; [6]", "value": "slight to no improvement in cell survival"},
      {"measurement": "day 1 cell survival", "setting": "[1]; PW conditioning, vs non-treated matched samples", "value": "minimal benefit"}
    ]}
  ]
}
